Entries after “also recorded” stand apart in the source; their conditions may differ.

The subject of assay [1] is cortical neurons. The assay is described as follows: Oligonucleosome formation in cortical neurons exposed to β-amyloid peptide (1-40). The class given is cell-based, rat. The note with it: for apoptosis (oligonucleosome formation) induced by β-amyloid peptide (1-40): 20 μM β-amyloid peptide (1-40), parallel treatment. As to the method:
Primary cultures of cortical neurons and cerebellar granule cells were prepared. In brief, cortical neurons were prepared from fetal brain from 17-day pregnant rat and cerebellar granule cells from 8-day old rats. Brain tissues were dissociated through trypsinization in 0.025% trypsin solution and trituration. Dissociated cells were collected through centrifugation and resuspended in standard medium containing: basal Eagle's medium containing 10% fetal bovine serum (FCS), 2 mM glutamine, genatmycin 0.05 mg/ml, and 25 mM KCI. Cells were plated at a density of 1.8×10^6 onto 35-mm dishes coated with 10 micrograms/ml ply-L-lysine.
An inhibitor of HO-1 activity may be used to determine whether or not the effects of the polyphenolic compounds or analogs thereof are induced through the heme oxygenase signaling pathway. To understand the relevance of the induction of the stress protein HO-1 on the neuroprotective effects afforded by curcumin we treated cortical neuron exposed to β-amyloid with curcumin ([…]) alone or in the presence of tinprotoporphirine IX (SnPP) 40 μM, a specific inhibitor of HO-1 activity. The same treatment was performed in cortical neurons exposed to GOX-induced cellular damage.

The subject of assay [2] is Male Wistar rats. The assay is described as follows: Brain lipid peroxides (FOX2) after T-BuOOH. The class given is in vivo, rat. As to the method: Male Wistar rats, weighing 140-180 g, were used for all experiments. Ten animals per experimental group were pre-administrated with curcumin, suitably suspended in distilled water, at the dose of 50 mg/kg per day, through oral intubation, for 7 days, before an intracerebroventricular injection of T-butylhydroperoxide (T-BuOOH) 2 μl of a 70% solution of phosphate buffered saline (PBS)^16. Lethality was assessed after administration of T-BuOOH at time points: 0, 2, 6, 12, and 24 h, and was expressed as the percentage of survival relative to the lethality observed in T-BuOOH plus Tween/saline vehicle (control) treated animals (FIG. 11A). […]
Briefly, brain areas were dissected and homogenized in ice cold 0.1 M, pH 7.5 phosphate buffer (final vol 1.1 ml). […] Hydroperoxides were quantitated by the FOX2 method^17. […] After centrifugation at 12,000×g for 5 min to remove any flocculated material, absorbance of the supernatant was then read at 560 nm.
Male Wistar rats, weighing 140-180 g, were used for all experiments. […] Lethality was assessed after administration of T-BuOOH at time points: 0, 2, 6, 12, and 24 h, and was expressed as the percentage of survival relative to the lethality observed in T-BuOOH plus Tween/saline vehicle (control) treated animals (FIG. 12A). […]

The subject of assay [3] is HO-1. In words: HO-1 protein expression, Western blot, cortical neurons. In kind it is cell-based, rat. As to the method: HO-1 and hsp70 protein levels were assessed by Western immunoblot technique using a polyclonal rabbit anti-HO-1 antibody (Stressgen; Victoria, Canada), and a polyclonal rabbit hsp70 antibody. Briefly, an equal amount of proteins (30 μg) for each sample was separated by SDS-polyacrylamide gel electrophoresis and transferred to nitrocellulose membranes, and the non-specific antibodies were blocked with 3% non-fat dried milk in PBS. Membranes were then probed with a polyclonal rabbit anti HO-1 antibody (Stressgen) (1:1000 dilution in Tris-buffered saline, pH 7,4) or with a monoclonal rabbit anti-Hsp72 antibody (Amersham Pharmacia Biotechnology) (1:1000 dilution in Tris-buffered saline, pH 7,4), that recognizes only the Hsp 70 inducible isoform. Blots were then visualized using an amplified alkaline phosphate kit from Sigma.

The subject of assay [4] is HO-1. The assay is described as follows: HO-1 protein expression, Western blot, astrocytes. In kind it is cell-based. As to the method: Type 1 astrocytes (DI TNC1) were purchased from the American Type Culture Collection (Manassas, VA) and cultured in Dulbecco's modified Eagle's medium containing 4.5 g/l glucose, 2 mM glutamine, 100 units/ ml penicillin, and 0.1 mg/ml streptomycin and supplemented with 10% fetal bovine serum. Cells were grown in 75-cm^2 flasks and maintained at 37° C. in a humidified atmosphere of air and 5% CO2. Confluent cells were exposed to various concentrations of curcumin, CAPE, or Curcumin-95. After each treatment (6 or 24 h), cells were harvested for the determination of heme oxygenase activity, HO-1 protein expression, and intracellular glutathione. Astrocytes growing in 24 wells were exposed to polyphenolic compounds, and cell viability was determined at 24 h. After treatment with curcumin, or CAPE, samples of astrocytes were also analyzed for HO-1 protein expression using a Western immunoblot technique described previously^18,19. Briefly, an equal amount of proteins (30 μg) for each sample was separated by SDS-polyacrylamide gel electrophoresis and transferred overnight to nitrocellulose membranes, and the non-specific binding of antibodies was blocked with 3% non-fat dried milk in PBS. Membranes were then probed with a polyclonal rabbit anti-HO-1 antibody (Stressgen) (1:1000 dilution in Tris-buffered saline, pH 7.4) for 2 h at room temperature. After three washes with PBS, blots were visualized using an amplified alkaline phosphatase kit from Sigma (Extra-3A), and the relative density of bands was analyzed by the use of an imaging densitometer (model GS-700; Bio-Rad, Herts, UK). Blots shown are representative of three independent experiments.

As to `O=C(/C=C/c1ccc(O)c(O)c1)OCCc1ccccc1` [CAPE, Caffeic acid phenethyl ester], the “apoptosis (oligonucleosome formation) induced by β-amyloid peptide (1-40)” value in assay [1] is “strong dose-dependent anti-apoptotic effect”. The “concentration most effective in protecting from apoptosis” value in assay [1] (β-amyloid) came out at 25 µM. Further, the “lipid peroxides in brain areas (oxidative damage)” value in assay [2] (20 mg/kg per day oral for 7 days before T-BuOOH) is listed as “prevented oxidative damages to neuronal tissues”. Further, in assay [3], the “HO-1 protein expression / HO-1 induction” value was “strongly induce HO-1”. In assay [4], the “concentration of maximal HO-1 protein expression” value came out at 30 µM. The HO-1 protein levels result in assay [4] (low concentrations 15-50 μM) is on record as “substantial increase”.
`COc1cc(C=CC(=O)CC(=O)C=Cc2ccc(O)c(OC)c2)ccc1O` [curcumin, 1,7-bis[4-Hydroxy-3-methoxyphenyl]-1,6-heptadiene-3,5-dione]: the “apoptosis (oligonucleosome formation) induced by β-amyloid peptide (1-40)” value in assay [1] was “able to overcome much of the cellular damage caused by β-amyloid; also recorded: dramatically protect the cells against apoptosis”. Further, the “apoptosis induced by β-amyloid in the presence of HO-1 inhibitor SnPP” value in assay [1] (curcumin plus SnPP 40 μM) was “only able to partially reduce the apoptotic effects”. Besides, in assay [2] (50 mg/kg per day oral for 7 days before T-BuOOH, cortex, striatum, hippocampus, cerebellum), the “lipid peroxides in brain areas (oxidative damage)” value is listed as “prevented the oxidative damages to neuronal tissues”. In assay [3], the “HO-1 protein expression / HO-1 induction” value is listed as “directly correlated with HO-1 protein levels”. Also, the HO-1 protein expression result in assay [4] (50-100 μM) is “failed to increase HO-1 expression”; in assay [4] (6 h, 15 and 30 μM), “marked up-regulation of HO-1 protein”; in assay [4] (24 h after treatment), “over-expression of HO-1 was also found”.
